In data set [1] the target is T1, IRE1a (Homo sapiens, UniProt O75460). The experiment in a line: IRE1a Endoribonuclease Nanoluciferase Assay in 293T cells. Format: cell-based. Conditions: XBP1 luciferase reporter in 293T cells, ER stressor. Also on record: endogenous in cells; host or cells: 293T cells. The protocol: Compounds disclosed herein were assessed for disruption of IRE1 signaling using a IRE1a Endoribonuclease Nanoluciferase Assay. Briefly, 2.5×10^6 293T cells were seeded in a 10 cm^2 tissue culture plate. About 24 hours later, the cells were transfected with Effectene. In a 15 mL tube, the following was added: 2 ug XBP1 luciferase reporter plasmid (PGK-Luc2-P2A-XBP1u-Nanoluciferase-PEST); 300 ul EC buffer; and 16 ul Enhancer, followed by incubation at room temp for 5 minutes. Next, 60 ul Effectene (Qiagen 301427) was added, followed by incubation at room temperature for 10 minutes, 2.6 mL cDMEM media was added. Old media was aspirated from the cells, followed by addition of 7 mL fresh media. Full transfection mixture was added dropwise to cells. Cells were incubated for 6 hours, followed by trypsinization, centrifugation and resuspension in 11 mL fresh cDMEM media, 100 uL of cells were plated per a well in a 96 well plate. A day later, ER stressors of choice +/−inhibitors were added. To harvest, media was aspirated from cells completely, then 50 uL 1× passive lysis buffer (Promega: E1941) was added per well and put on shaker (300 rpm) for 30 minutes at room temperature. Cells were centrifuged, and 15 uL sample per well was added to a new, opaque white 384 well plate (Corning 3570), 15 uL OneGlo (nanoluciferase kit, Promega N1630) was added. Plates were spun down, placed on shaker (300 rpm) for 10 minutes. Plates were read on luminometer, 1000 ms integration time per well, 15 uL Stop and Glo (nanoluciferase kit) was added. Plates were spun down, placed on shaker (300 rpm) for 10 minutes. Plates were read on luminometer, 1000 ms second integration time per well. Recordings are provided below in Table 4.

For data set [2], the target named is T1, IRE1a. The experiment in a line: In vitro FRET assay (IRE1a cleavage of XBP1 RNA probe). Format: biochemical. Set-up: purchased SignalChem. Conditions: 2 nM IRE1a. On the procedure: In vitro FRET assay was performed to evaluate the ability of select compounds to inhibit IRE1, the results of which are summarized in Table 3. To perform the in vitro FRET assay, 1× complete assay buffer (CAB; […], 50 mM sodium citrate pH 7.15, 1 mM magnesium acetate, 0.02% tween 20) was used to dilute SignalChem IRE1a protein to a final concentration of 2 nM. Selected compounds were serially diluted with DMSO in a non-binding black 384-well plate for a total of 15 ul in each well, 2 ul of the serially diluted compound or DMSO control were then added to new wells containing 98 ul of 1×CAB, for a total volume of 100 ul, 10 ul of which were then transferred to wells of a new plate, 5 ul of the diluted IRE1a was then added to each well, 5 ul of a […] XBP1 RNA probe was then added to each well. Fluorescence was then read over 30 minutes in kinetic mode (485/515 nm).
Two RNA probes were used, XBP1 wildtype (SEQ ID NO: 2) which is able to be spliced by active IRE1a or XBP1 mutant (SEQ ID NO: 3) which is unable to be spliced. Each probe contained a 5′ 6-FAM modification and a 3′ IOWA Black FQ modification. […]

A short description of data set [3]: Metabolic assays of N,N-dimethyl compounds. Type of data set: in vitro ADME. To be noted: data not shown.
The subject of the next data set is IRE1a/XBP1 pathway. The experiment in a line: Inhibition of endogenous XBP1 splicing in 293T cells with tunicamycin. Type of data set: cell-based, human. On the procedure: Gene expression was evaluated by quantitative PCR for XBP1s and total XBP1 transcripts using the 2^(−ΔCT) method for calculating normalized gene expression. Gene expression levels were normalized to ACTB transcripts. XBP1 splicing was calculated as actin-normalized XBP1s expression divided by actin-normalized total XBP1 expression.

Data set [4] has as its system IRE1a-mediated XBP1 splicing. The experiment in a line: Target engagement in pancreas and salivary gland (XBP1 splicing RT-qPCR). Type of data set: in vivo, mouse. Conditions: mice, 30 mg/kg oral gavage, 6 hours, compared to control and Compound B. The protocol: Mice (n=3 per group) were orally gavaged with 30 mg/kg vehicle control or IRE1 inhibitors dissolved in H2O. After 6 hours, mice were euthanized and pancreas and salivary gland tissues were isolated, snap frozen on dry ice, and used for subsequent RT-qPCR analysis of beta-actin, XBP1s and total XBP1. Gene expression was evaluated by quantitative PCR for XBP1s and total XBP1 transcripts using the 2^(−ΔCT) method for calculating normalized gene expression. Gene expression levels were normalized to Actb transcripts. XBP1 splicing is calculated as XBP1s expression divided by total XBP1 expression.
A general note: Quantitative PCR measures a nucleic acid by following its amplification.

The subject of data set [5] is IRE1a-dependent XBP1 splicing. The experiment in a line: Inhibition of IRE1a-dependent XBP1 splicing in ovarian cancer cells in vivo. To be noted: mice with metastatic ovarian cancer, single oral dose 45 mg/kg, 24 hours. Set-up: species or system mouse. The protocol: Mice (n=3) with established metastatic ovarian cancer were orally gavaged with 45 mg/kg vehicle control or inhibitor dissolved in H2O. The inhibitor was Compound C. Compound C is 2-chloro-N-(5-(2-(((1r,4r)-4-(dimethylamino)cyclohexyl)amino)-8-ethylquinazolin-6-yl)-6-methylpyridin-2-yl)benzenesulfonamide, Compound 91, described herein. After 24 hours, mice were euthanized, ascites-resident cells were extracted and tumor cells, dendritic cells (DCs), and CD4+ T cells were isolated by FACS. The samples were used for subsequent RT-qPCR analysis of beta-actin, XBP1s and total XBP1. Gene expression was evaluated by quantitative PCR for XBP1s and total XBP1 transcripts using the 2^(−ΔCT) method for calculating normalized gene expression. Gene expression levels were normalized to Actb transcripts. XBP1 splicing is calculated as XBP1s expression divided by total XBP1 expression. A single oral dose of Compound C suppressed IRE1a-dependent XBP1 splicing in tumor cells and relevant immune cells in vivo over 24 hours, FIG. 7.
Mice (n=3) with established metastatic ovarian cancer were orally gavaged with 45 mg/kg vehicle control or inhibitor dissolved in H2O. […] Gene expression was evaluated by quantitative PCR for XBP1s and total XBP1 transcripts using the 2^(−ΔCT) method for calculating normalized gene expression. […] XBP1 splicing is calculated as XBP1s expression divided by total XBP1 expression. […]

The nature of the next data set: in vivo. Conditions: mouse.
Data set [6] in a line: Bioavailability assay (pharmacokinetic study). Conditions: mouse; IV 1 mg/kg, PO 10 or 30 mg/kg.

Where a name gives a salt, the structure may show the parent alone.

As a reminder, the EC50 is the concentration that produces a half-maximal response. The IC50 is the concentration that gives 50% inhibition. A higher IC50 goes with a need for much substance. As a reminder, the bioavailability is the share of a dose that reaches the circulation, judged against a reference dose that is usually intravenous. A lower bioavailability goes with poor availability.

T1 sequence (O75460 19-977): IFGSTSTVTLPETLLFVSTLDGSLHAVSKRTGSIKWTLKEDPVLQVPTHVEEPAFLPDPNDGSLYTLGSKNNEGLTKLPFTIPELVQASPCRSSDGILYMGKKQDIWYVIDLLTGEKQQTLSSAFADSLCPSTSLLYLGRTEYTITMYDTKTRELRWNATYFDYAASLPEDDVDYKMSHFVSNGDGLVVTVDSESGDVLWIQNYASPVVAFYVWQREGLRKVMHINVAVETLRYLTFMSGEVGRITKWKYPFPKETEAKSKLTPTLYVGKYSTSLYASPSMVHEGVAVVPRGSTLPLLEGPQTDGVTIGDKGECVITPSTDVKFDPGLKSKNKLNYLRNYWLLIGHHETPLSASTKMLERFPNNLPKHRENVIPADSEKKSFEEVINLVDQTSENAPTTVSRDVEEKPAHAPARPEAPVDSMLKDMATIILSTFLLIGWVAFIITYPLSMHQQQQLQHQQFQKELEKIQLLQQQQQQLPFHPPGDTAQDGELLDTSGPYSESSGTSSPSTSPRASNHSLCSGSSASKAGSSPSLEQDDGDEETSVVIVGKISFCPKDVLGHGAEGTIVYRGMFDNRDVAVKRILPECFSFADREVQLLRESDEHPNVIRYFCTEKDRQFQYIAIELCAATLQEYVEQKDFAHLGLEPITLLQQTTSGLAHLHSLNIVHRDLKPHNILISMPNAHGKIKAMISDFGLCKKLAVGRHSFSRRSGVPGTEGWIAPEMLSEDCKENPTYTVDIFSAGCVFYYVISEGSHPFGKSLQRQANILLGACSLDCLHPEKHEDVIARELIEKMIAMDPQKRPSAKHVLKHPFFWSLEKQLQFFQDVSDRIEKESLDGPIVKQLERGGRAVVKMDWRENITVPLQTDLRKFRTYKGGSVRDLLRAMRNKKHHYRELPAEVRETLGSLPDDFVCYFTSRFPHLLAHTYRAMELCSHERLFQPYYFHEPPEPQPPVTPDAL

In turn, `CCc1cc(-c2cnc(NS(=O)(=O)c3ccccc3Cl)nc2OC)cc2cnc(N[C@H]3CC[C@H](N(C)C)CC3)nc12` [154; Formic Acid Salt] gave an EC50 on IRE1a [1] not above 5 nM. At IRE1a [2], the IC50 was not above 5 nM.
On IRE1a [1], `COc1nc(NS(=O)(=O)c2ccccc2Cl)c(F)cc1-c1cc(F)c2nc(N[C@H]3CC[C@H](N(C)C)CC3)ncc2c1` [155; Formic Acid Salt] came in with an EC50 of 50 to 100 nM. Further, the IC50 against IRE1a [2] was not above 5 nM.
Taken in the same sequence, the figures for `CCc1cc(-c2ccc(NS(=O)(=O)c3cccc(F)c3Cl)nc2C)cc2cnc(N[C@H]3CC[C@H](N(C)C)CC3)nc12` [158; Formic Acid Salt] were not above 5 nM and not above 5 nM.
Taken in the same sequence, the figures for `CCc1cc(-c2nnc(NS(=O)(=O)c3ccccc3Cl)cc2OC)cc2cnc(N[C@H]3CC[C@H](N(C)C)CC3)nc12` [159; Formic Acid Salt] were 5 to 50 nM and not above 5 nM.
Taken in the same sequence, the figures for `CCc1cc(-c2ccc(NS(=O)(=O)c3cccc(C)c3Cl)nc2C)cc2cnc(N[C@H]3CC[C@H](N(C)C)CC3)nc12` [160; Formic Acid Salt] were not above 5 nM and not above 5 nM.
`CCc1c(F)c(-c2ccc(NS(=O)(=O)c3ccccc3Cl)nc2C)cc2cnc(N[C@H]3CC[C@H](N(C)C)CC3)nc12` [161; Formic Acid Salt] came in with an EC50 at IRE1a [1] not above 5 nM. This compound displayed an IC50 on IRE1a [2] not above 5 nM.
As for `CCc1c(F)c(-c2cc(F)c(NS(=O)(=O)c3ccccc3Cl)nc2C)cc2cnc(N[C@H]3CC[C@H](N(C)C)CC3)nc12` [162; Formic Acid Salt], on IRE1a [1], the EC50 was not above 5 nM. Moreover, on IRE1a [2], the IC50 is not above 5 nM.
Regarding `CCc1c(F)c(-c2cc(F)c(NS(=O)(=O)c3ccccc3Cl)nc2OC)cc2cnc(N[C@H]3CC[C@H](N(C)C)CC3)nc12` [163; Formic Acid Salt], the EC50 on IRE1a [1] is not above 5 nM. The compound also showed an IC50 against IRE1a [2] not above 5 nM.
Regarding `CCc1cc(-c2ccc(NS(=O)(=O)c3ccccc3Cl)nc2C)cc2cnc(N[C@H]3CC[C@H](N(C)C)CC3)nc12` [Compound 91, 2-chloro-N-(5-(2-(((1r,4r)-4-(dimethylamino)cyclohexyl)amino)-8-ethylquinazolin-6-yl)-6-methylpyridin-2-yl)benzenesulfonamide], the “metabolism of N,N-dimethyl compounds” value in data set [3] is “removal of the methyl groups”. Also, the “shift in potency between Compound A and Compound C (XBP1 splicing inhibition)” value in the data set with IRE1a/XBP1 pathway was “approximately 3.6 ×”.
With `CCc1cc(-c2ccc(NS(=O)(=O)c3ccccc3Cl)nc2OC)cc2cnc(N[C@H]3CC[C@H](N(C)C)CC3)nc12` [Compound 99, 2-chloro-N-(5-(2-(((1r,4r)-4-(dimethylamino)cyclohexyl)amino)-8-ethylquinazolin-6-yl)-6-methoxypyridin-2-yl)benzenesulfonamide], in data set [3], the “metabolism of N,N-dimethyl compounds” value is “removal of the methyl groups”. In addition, the “IRE1a-mediated XBP1 splicing in pancreas and salivary gland” value in data set [4] is “potently suppressed”. In addition, the “IRE1a-dependent XBP1 splicing in FACS-isolated ascites cells” value in data set [5] is listed as “suppressed”.
`CCc1cc(-c2ccc(NS(=O)(=O)c3ccccc3Cl)nc2OC)cc2cnc(N[C@H]3CC[C@H](N(C)C)CC3)nc12` [Compound 99] showed a bioavailability in “in vivo” of 70%.
With `CCc1cc(-c2ccc(NS(=O)(=O)c3ccccc3Cl)nc2C)cc2cnc(N[C@H]3CC[C@H](N)CC3)nc12` [Compound A, N-(5-(2-(((1r,4r)-4-aminocyclohexyl)amino)-8-ethylquinazolin-6-yl)-6-methylpyridin-2-yl)-2-chlorobenzenesulfonamide], the oral bioavailability in data set [6] is given as 4%.

These data come from patent US20220265656A1, “COMBINATION THERAPIES WITH IRE1 SMALL MOLECULE INHIBITORS” (Cornell University, priority 2019, published 2022).
